# Measurements as given in patent US20260152487A1 (Sitryx Therapeutics Limited, priority 2021, published 2026).
# Biological target: T1, recombinant human PKM2 (Homo sapiens, UniProt P14618)
# T1 construct: His (N); purchased R&D Systems
# Assay: Human PKM2 activation assay (Kinase-Glo Plus luminescent detection of generated ATP)
# Type: biochemical
# Conditions: for Emax: percentage activation normalised to DMSO vehicle (LOW) and 5 μM TEPP-46 (HIGH), read-out: hPKM2 Emax; for EC50: recombinant human PKM2 activation, 4-parameter logistic fit, read-out: hPKM2 EC50
# Summary of the method: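 Luminescent ATP detection (Kinase-Glo Plus, 15 min, 26 °C) followed a 60 min, 26 °C shaken reaction of compound with […] His-tagged human PKM2, PEP and ADP in imidazole/KCl/MgCl2 buffer with Tween20 and BSA, pH 7.2.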
# T1 sequence (P14618 2-531 limits assumed): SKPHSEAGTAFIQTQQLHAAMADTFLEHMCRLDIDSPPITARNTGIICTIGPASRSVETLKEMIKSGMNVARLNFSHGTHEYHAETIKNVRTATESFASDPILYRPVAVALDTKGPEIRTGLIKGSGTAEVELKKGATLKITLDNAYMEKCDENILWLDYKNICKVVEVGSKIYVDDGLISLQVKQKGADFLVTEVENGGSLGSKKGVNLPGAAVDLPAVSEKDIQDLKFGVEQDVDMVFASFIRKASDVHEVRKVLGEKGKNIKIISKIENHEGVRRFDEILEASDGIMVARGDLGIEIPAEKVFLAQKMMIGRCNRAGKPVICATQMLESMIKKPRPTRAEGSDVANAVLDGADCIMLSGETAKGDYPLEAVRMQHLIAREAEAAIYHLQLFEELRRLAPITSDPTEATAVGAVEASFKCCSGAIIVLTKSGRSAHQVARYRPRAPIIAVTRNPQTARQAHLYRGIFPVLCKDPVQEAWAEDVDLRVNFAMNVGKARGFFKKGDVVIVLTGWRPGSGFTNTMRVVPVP
Structure (SMILES),Emax [%],EC50 [µM]
"Cc1cc(Cn2ncc3cc(S(=O)(=O)c4cn[nH]c4)ncc3c2=O)n[nH]1 [Example 300, 7-((1H-pyrazol-4-yl)sulfonyl)-3-((5-methyl-1H-pyrazol-3-yl)methyl)pyrido[3,4-d]pyridazin-4(3H)-one]",93.2,0.099
"Cc1ccc(S(=O)(=O)c2ccc3c(=O)n(Cc4cc[nH]n4)ncc3c2)cn1 [Example 290, 2-((1H-pyrazol-3-yl)methyl)-6-((6-methylpyridin-3-yl)sulfonyl)phthalazin-1(2H)-one]",106,0.594
"Cc1nc(S(=O)(=O)c2ccc3c(=O)n(Cc4ccn(C)n4)ncc3c2)cs1 [Example 214, 2-((1-methyl-1H-pyrazol-3-yl)methyl)-6-((2-methylthiazol-4-yl)sulfonyl)phthalazin-1(2H)-one]",102,0.254
"COc1ccc(Cn2ncc3cc(S(=N)(=O)c4ccccc4)ccc3c2=O)cn1 (racemic) [Example 131, 2-((6-methoxypyridin-3-yl)methyl)-6-(phenylsulfonimidoyl)phthalazin-1(2H)-one]",99.7,0.3
"COc1cccc(Cn2ncc3cc(S(=O)(=O)c4ccccc4)ccc3c2=O)c1C(N)=O [Example 92, 2-methoxy-6-((1-oxo-6-(phenylsulfonyl)phthalazin-2(1H)-yl)methyl)benzamide]",98.9,0.158
"Cn1ccc(Cn2ncc3c(F)c(S(=O)(=O)c4ccccc4)ccc3c2=O)n1 [Example 243, 5-fluoro-2-((1-methyl-1H-pyrazol-3-yl)methyl)-6-(phenylsulfonyl)phthalazin-1(2H)-one]",109,0.086
O=c1c2ccc(S(=O)(=O)c3cc[nH]n3)cc2cnn1Cc1ccc2occc2n1 [Example 335],113,0.0142
"COc1cnc(Cn2ncc3cc(S(=O)(=O)c4ccccc4)ccc3c2=O)cn1 [Example 87, 2-((5-methoxypyrazin-2-yl)methyl)-6-(phenylsulfonyl)phthalazin-1(2H)-one]",85.8,0.475
"O=c1c2ccc(S(=O)(=O)c3cn[nH]c3)cc2cnn1Cc1cnc2c(c1)CCO2 [Example 293, 6-(1H-pyrazol-4-ylsulfonyl)-2-((2,3-dihydrofuro[2,3-b]pyridin-5-yl)methyl)phthalazin-1(2H)-one]",67.5,0.858
"COc1ccc(Cn2ncc3cc(S(=O)(=O)c4ccccc4)ccc3c2=O)cc1 [Example 49, 2-(4-methoxybenzyl)-6-(phenylsulfonyl)phthalazin-1(2H)-one]",98.2,0.122
O=c1c2ccc(S(=O)(=O)c3cnn(CC(F)(F)F)c3)cc2cnn1Cc1cc[nH]n1 [Example 361],93.2,0.0794
"COc1ncccc1Cn1ncc2cc(S(=O)(=O)c3ccccc3)ccc2c1=O [Example 88, 2-((2-methoxypyridin-3-yl)methyl)-6-(phenylsulfonyl)phthalazin-1(2H)-one]",93.2,0.618
O=c1c2ccc(S(=O)(=O)c3csc(C4CC4)n3)cc2cnn1Cc1cc[nH]n1 [Example 346],96.7,0.0423
"Cn1ccc(S(=O)(=O)c2ccc3c(=O)n(Cc4ccccc4C(N)=O)ncc3c2)n1 [Example 210, 2-((6-(1-methyl-1H-pyrazol-3-ylsulfonyl)-1-oxophthalazin-2(1H)-yl)methyl)benzamide]",87.4,0.318
"COc1ccc(Cn2ncc3cc(S(=O)(=O)c4cc(C)ccn4)ccc3c2=O)cn1 [Example 159, 2-((6-methoxypyridin-3-yl)methyl)-6-(4-methylpyridin-2-ylsulfonyl)phthalazin-1(2H)-one]",72.4,0.501
"COc1ccc(Cn2ncc3cc(S(=O)(=O)c4ccsc4C(N)=O)ccc3c2=O)cn1 [Example 117, 3-(2-((6-methoxypyridin-3-yl)methyl)-1-oxo-1,2-dihydrophthalazin-6-ylsulfonyl)thiophene-2-carboxamide]",77,0.177
"O=c1c2ccc(S(=O)(=O)c3ccccc3)cc2cnn1Cc1n[nH]cc1CO [Example 26, 2-((4-(hydroxymethyl)-1H-pyrazol-3-yl)methyl)-6-(phenylsulfonyl)phthalazin-1(2H)-one]",106,0.838
"COc1ccc(Cn2ncc3cc(S(=O)(=O)c4ccccc4OC)ccc3c2=O)cn1 [Example 164, 6-(2-methoxyphenylsulfonyl)-2-((6-methoxypyridin-3-yl)methyl)phthalazin-1(2H)-one]",107,0.145
"COc1cccc(S(=O)(=O)c2ccc3c(=O)n(Cc4ccc(OC)nc4)ncc3c2)c1 [Example 116, 6-(3-methoxyphenylsulfonyl)-2-((6-methoxypyridin-3-yl)methyl)phthalazin-1(2H)-one]",96.1,0.0595

Structure (SMILES),Emax [%],EC50 [µM]
"N#Cc1c[nH]nc1Cn1ncc2cc(S(=O)(=O)c3ccccc3)ccc2c1=O [Example 18, 3-((1-oxo-6-(phenylsulfonyl)phthalazin-2(1H)-yl)methyl)-1H-pyrazole-4-carbonitrile]",98.5,0.841
"COc1ccc(Cn2ncc3cc(S(=O)(=O)c4ccc5c(c4)CCO5)ccc3c2=O)cn1 [Example 126, 6-((2,3-dihydrobenzofuran-5-yl)sulfonyl)-2-((6-methoxypyridin-3-yl)methyl)phthalazin-1(2H)-one]",95.3,0.0189
"Cc1cn(CCO)nc1Cn1ncc2cc(S(=O)(=O)c3ccccc3)ccc2c1=O [Example 16, 2-((1-(2-hydroxyethyl)-4-methyl-1H-pyrazol-3-yl)methyl)-6-(phenylsulfonyl)phthalazin-1(2H)-one]",92.6,0.154
"CCOc1ccc(S(=O)(=O)c2ccc3c(=O)n(Cc4ccn(C)n4)ncc3c2)cc1 [Example 216, 6-((4-ethoxyphenyl)sulfonyl)-2-((1-methyl-1H-pyrazol-3-yl)methyl)phthalazin-1(2H)-one]",103,0.0743
"N#Cc1sccc1Cn1ncc2cc(S(=O)(=O)c3ccccc3)ccc2c1=O [Example 23, 3-((1-oxo-6-(phenylsulfonyl)phthalazin-2(1H)-yl)methyl)thiophene-2-carbonitrile]",112,0.265
COC(C)c1nc(S(=O)(=O)c2ccc3c(=O)n(Cc4ccc5c(n4)CCO5)ncc3c2)cs1 (stereo not shown) [Example 350],94.9,0.0367
"COc1ccc(S(=O)(=O)c2ccc3c(=O)n(Cc4ccn(CCO)n4)ncc3c2)nc1 [Example 292, 2-((1-(2-hydroxyethyl)-1H-pyrazol-3-yl)methyl)-6-((5-methoxypyridin-2-yl)sulfonyl)phthalazin-1(2H)-one]",86.6,0.285
"COc1ncccc1Cn1ncc2cc(S(=O)(=O)c3cn[nH]c3)ccc2c1=O [Example 284, 6-((1H-pyrazol-4-yl)sulfonyl)-2-((2-methoxypyridin-3-yl)methyl)phthalazin-1(2H)-one]",72.7,0.452
COCCn1ccc(S(=O)(=O)c2ccc3c(=O)n(Cc4ccc5c(n4)CCO5)ncc3c2)n1 [Example 360],113,0.0714
COC(C)c1nc(S(=O)(=O)c2ccc3c(=O)n(Cc4cc[nH]n4)ncc3c2)cs1 (stereo not shown) [Example 351],103,0.0939
"O=c1c2ccc(S(=O)(=O)c3ccccc3)cc2cnn1Cc1cc2n(n1)CCO2 [Example 27, 2-((2,3-dihydropyrazolo[5,1-b]oxazol-6-yl)methyl)-6-(phenylsulfonyl)phthalazin-1(2H)-one]",122,0.07
"O=c1c2ccc(S(=O)(=O)c3ccc4sccc4c3)cc2cnn1Cc1cc[nH]n1 [Example 227, 2-((1H-pyrazol-3-yl)methyl)-6-(benzo[b]thiophen-5-ylsulfonyl)phthalazin-1(2H)-one]",115,0.0354
"CC1Cc2cc(S(=O)(=O)c3ccc4c(=O)n(Cc5ccn(C)n5)ncc4c3)ccc2O1 (stereo not shown) [Example 213, 2-((1-methyl-1H-pyrazol-3-yl)methyl)-6-((2-methyl-2,3-dihydrobenzofuran-5-yl)sulfonyl)phthalazin-1(2H)-one]",107,0.0365
"COc1ccc(Cn2ncc3cc(S(=O)(=O)c4ccc(Cl)cc4)ccc3c2=O)cn1 [Example 155, 6-((4-chlorophenyl)sulfonyl)-2-((6-methoxypyridin-3-yl)methyl)phthalazin-1(2H)-one]",71.6,0.184
COCCn1cc(S(=O)(=O)c2ccc3c(=O)n(Cc4ccc5c(n4)CCO5)ncc3c2)cn1 [Example 333],101,0.0318
"Cc1coc2ccc(S(=O)(=O)c3ccc4c(=O)n(Cc5cc[nH]n5)ncc4c3)cc12 [Example 220, 2-((1H-pyrazol-3-yl)methyl)-6-((3-methylbenzofuran-5-yl)sulfonyl)phthalazin-1(2H)-one]",84.7,0.0677
"Cn1ccc(Cn2ncc3cc(S(=O)(=O)c4ccccc4)ncc3c2=O)n1 [Example 248, 3-((1-methyl-1H-pyrazol-3-yl)methyl)-7-(phenylsulfonyl)pyrido[3,4-d]pyridazin-4(3H)-one]",103,0.113
"COc1ccc(Cn2ncc3cc(S(=O)(=O)c4ccc5c(c4)OCCO5)ccc3c2=O)cn1 [Example 182, 6-((2,3-dihydrobenzo[b][1,4]dioxin-6-yl)sulfonyl)-2-((6-methoxypyridin-3-yl)methyl)phthalazin-1(2H)-one]",80.2,0.0152
"COc1ccc(Cn2ncc3cc(S(=N)(=O)c4ccc5c(c4)CCO5)ccc3c2=O)cn1 (racemic) [Example 127, 6-(2,3-dihydrobenzofuran-5-sulfonimidoyl)-2-((6-methoxypyridin-3-yl)methyl)phthalazin-1(2H)-one]",68.3,0.0433
